Measurements published in US10428067B2, “Compounds and methods for kinase modulation” (Plexxikon Inc., priority 2017, dated 2019).

Columns and labels:
TGFβR2 = TGFβR2 (Homo sapiens, UniProt P37173); assay: Biochemical TGFβR2 assay (LanthaScreen Europium Kinase Binding Assay); conditions: geometric mean; tracer displacement, five concentrations 1.0-0.0039 μM in duplicate; read-out: TGFBR2 GMean: IC50 (μM) (Biochemical Assay)
Procedure: The IC50 of certain compounds in this disclosure against TGFβR2 was conducted under contract at Thermo Fisher Scientific, Life Sciences Solutions as part of their SelectScreen™ profiling service. The TGFβR2 assay used the LanthaScreen® Europium Kinase Binding Assay. Binding of an Alexa Fluor® conjugate Tracer 199 (100 nM) to TGFβR2 (5 nM) was detected by addition of a Eu-labeled anti-tag antibody (5 nM) in Kinase Buffer A (50 mM HEPES pH 7.5, 0.01% BRIJ-35, 10 mM MgCl2, 1 mM EGTA) and 1% final DMSO. […] The percent inhibition was calculated from the emission ratio of Alexa Fluor® and Europium as documented by Thermo Fisher (www.thermofisher.com/kinaseprofiling). The IC50 of certain compounds in this disclosure was determined by testing a dilution series of the compound in duplicate at five concentrations (1.0, 0.25, 0.062, 0.015 and 0.0039 μM) by fitting the inhibition data with a sigmoidal curve fit model.
Table II provides data indicating TGFBR2 biochemical inhibitory activities for exemplary compounds as described herein.

FLT3 D835Y = target: T1, FLT3 D835Y (Homo sapiens, UniProt P36888, D835Y); assay: Biochemical FLT3 D835Y assay; conditions: geometric mean; assay as in US2017/0267660; read-out: FLT3 D835Y GMean: IC50 (μM) (Biochemical Assay)
T1 sequence (P36888 27-993 D835Y): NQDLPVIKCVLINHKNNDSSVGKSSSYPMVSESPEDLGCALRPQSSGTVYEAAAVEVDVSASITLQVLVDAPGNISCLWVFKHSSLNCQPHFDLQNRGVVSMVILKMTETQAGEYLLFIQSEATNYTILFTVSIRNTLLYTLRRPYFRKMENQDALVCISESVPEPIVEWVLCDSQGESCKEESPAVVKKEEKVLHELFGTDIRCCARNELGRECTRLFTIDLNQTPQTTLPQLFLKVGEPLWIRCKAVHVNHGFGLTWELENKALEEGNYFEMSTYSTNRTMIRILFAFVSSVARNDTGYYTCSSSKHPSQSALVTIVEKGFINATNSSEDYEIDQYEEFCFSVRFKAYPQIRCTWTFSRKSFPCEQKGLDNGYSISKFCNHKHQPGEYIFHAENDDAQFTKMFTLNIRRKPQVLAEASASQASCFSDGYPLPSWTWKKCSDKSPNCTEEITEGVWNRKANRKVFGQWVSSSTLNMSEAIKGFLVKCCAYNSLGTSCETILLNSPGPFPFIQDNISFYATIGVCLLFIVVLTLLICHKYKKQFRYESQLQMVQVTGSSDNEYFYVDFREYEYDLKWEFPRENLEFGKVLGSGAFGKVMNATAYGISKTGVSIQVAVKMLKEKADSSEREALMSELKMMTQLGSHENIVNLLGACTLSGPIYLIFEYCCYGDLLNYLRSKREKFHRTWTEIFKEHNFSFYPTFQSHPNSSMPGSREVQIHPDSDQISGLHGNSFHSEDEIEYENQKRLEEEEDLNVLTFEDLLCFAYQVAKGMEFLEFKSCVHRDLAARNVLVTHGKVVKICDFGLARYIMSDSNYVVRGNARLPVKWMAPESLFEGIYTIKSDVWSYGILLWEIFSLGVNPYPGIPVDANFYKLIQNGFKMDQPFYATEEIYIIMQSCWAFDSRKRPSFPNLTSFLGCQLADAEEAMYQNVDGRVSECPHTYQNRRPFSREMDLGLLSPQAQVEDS
Procedure: FLT3 D835Y assays were conducted on certain compounds of this disclosure as described in U.S. Patent Publication No. US2017/0267660.
Table II provides data indicating FLT3 D835Y biochemical inhibitory activities for exemplary compounds as described herein.

[1] = tested on: quizartinib resistance-causing mutants of FLT3-ITD; conditions: all identified quizartinib resistance-causing mutants and other mutant isoforms (Smith et al.); cited from earlier work

TGFβR2, sequence (P37173 23-567): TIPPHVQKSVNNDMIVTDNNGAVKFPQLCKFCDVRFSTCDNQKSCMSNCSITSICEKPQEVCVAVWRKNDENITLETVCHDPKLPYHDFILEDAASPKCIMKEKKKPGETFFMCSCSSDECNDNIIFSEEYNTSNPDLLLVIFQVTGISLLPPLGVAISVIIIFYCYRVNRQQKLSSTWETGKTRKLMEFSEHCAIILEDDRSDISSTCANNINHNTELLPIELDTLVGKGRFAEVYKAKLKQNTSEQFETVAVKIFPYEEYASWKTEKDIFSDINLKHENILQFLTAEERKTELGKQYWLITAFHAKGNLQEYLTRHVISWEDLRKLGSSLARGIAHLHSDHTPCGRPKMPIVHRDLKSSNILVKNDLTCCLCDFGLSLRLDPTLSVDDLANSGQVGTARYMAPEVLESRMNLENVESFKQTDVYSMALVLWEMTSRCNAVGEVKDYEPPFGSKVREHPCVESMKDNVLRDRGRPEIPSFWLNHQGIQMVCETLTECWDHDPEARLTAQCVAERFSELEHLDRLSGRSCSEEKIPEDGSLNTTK

SMILES	IC50 (TGFβR2) [µM]	IC50 (FLT3 D835Y) [µM]	activity against quizartinib resistance-causing mutants [1]
CC(C)(C#N)NC(=O)c1cccc(-c2cnc3[nH]c(-c4c(F)nn(C(F)F)c4F)c(F)c3c2)n1 [P-003, N-(1-cyano-1-methyl-ethyl)-6-[2-[1-(difluoromethyl)-3,5-difluoro-pyrazol-4-yl]-3-fluoro-1H-pyrrolo[2,3-b]pyridin-5-yl]pyridine-2-carboxamide]	0.0001 to 10	0.0001 to 10	–
N#CC1(NC(=O)c2cccc(-c3cnc4[nH]c(-c5cnn(C(F)F)c5)cc4c3)n2)CCC1 [P-007, N-(1-cyanocyclobutyl)-6-(2-(1-(difluoromethyl)-1H-pyrazol-4-yl)-1H-pyrrolo[2,3-b]pyridin-5-yl)picolinamide]	0.0001 to 10	0.0001 to 10	–
O=C(NCC1(O)CC1)c1cccc(-c2cnc3[nH]c(-c4cnn(C(F)F)c4)cc3c2)n1 [P-012, 6-(2-(1-(difluoromethyl)-1H-pyrazol-4-yl)-1H-pyrrolo[2,3-b]pyridin-5-yl)-N-((1-hydroxycyclopropyl)methyl)picolinamide]	0.0001 to 10	0.0001 to 10	–
CC(C)(O)CNC(=O)c1cccc(-c2cnc3[nH]c(-c4cnn(C(F)F)c4)cc3c2)n1 [P-011, 6-(2-(1-(difluoromethyl)-1H-pyrazol-4-yl)-1H-pyrrolo[2,3-b]pyridin-5-yl)-N-(2-hydroxy-2-methylpropyl)picolinamide]	0.0001 to 10	0.0001 to 10	–
CC(C)(C#N)NC(=O)c1cccc(-c2cnc3[nH]c(-c4cnn(C(F)F)c4)c(Br)c3c2)n1 [P-005, 6-[3-bromo-2-[1-(difluoromethyl)pyrazol-4-yl]-1H-pyrrolo[2,3-b]pyridin-5-yl]-N-(1-cyano-1-methyl-ethyl)pyridine-2-carboxamide]	0.0001 to 10	0.0001 to 10	–
N#CC1(CNC(=O)c2cccc(-c3cnc4[nH]c(-c5cnn(C(F)F)c5)cc4c3)n2)CC1 [P-008, N-((1-cyanocyclopropyl)methyl)-6-(2-(1-(difluoromethyl)-1H-pyrazol-4-yl)-1H-pyrrolo[2,3-b]pyridin-5-yl)picolinamide]	0.0001 to 10	0.0001 to 10	–
O=C(NC1CC(O)C1)c1cccc(-c2cnc3[nH]c(-c4cnn(C(F)F)c4)cc3c2)n1 (centres unmarked) [P-009, 6-(2-(1-(difluoromethyl)-1H-pyrazol-4-yl)-1H-pyrrolo[2,3-b]pyridin-5-yl)-N-(3-hydroxycyclobutyl)picolinamide]	0.0001 to 10	0.0001 to 10	–
N#CC1(NC(=O)c2cccc(-c3cnc4[nH]c(-c5cnn(C(F)F)c5)cc4c3)n2)CC1 [P-006, N-(1-cyanocyclopropyl)-6-(2-(1-(difluoromethyl)-1H-pyrazol-4-yl)-1H-pyrrolo[2,3-b]pyridin-5-yl)picolinamide]	0.0001 to 10	0.0001 to 10	–
CC(C)(C#N)NC(=O)c1cccc(-c2cnc3[nH]c(-c4cnn(CC#N)c4)cc3c2)n1 [P-001, 6-(2-(1-(cyanomethyl)-1H-pyrazol-4-yl)-1H-pyrrolo[2,3-b]pyridin-5-yl)-N-(2-cyanopropan-2-yl)picolinamide]	0.0001 to 10	0.0001 to 10	–
O=C(NC1CS(=O)(=O)C1)c1cccc(-c2cnc3[nH]c(-c4cnn(C(F)F)c4)cc3c2)n1 [P-010, 6-(2-(1-(difluoromethyl)-1H-pyrazol-4-yl)-1H-pyrrolo[2,3-b]pyridin-5-yl)-N-(1,1-dioxidothietan-3-yl)picolinamide]	0.0001 to 10	0.0001 to 10	–
CNC(=O)c1cc(Oc2ccc(NC(=O)Nc3ccc(Cl)c(C(F)(F)F)c3)cc2)ccn1 [sorafenib]	–	–	ineffective
CC(C)(C#N)NC(=O)c1cccc(-c2cnc3[nH]c(-c4cnn(C(F)F)c4)c(F)c3c2)n1 [P-004, N-(1-cyano-1-methyl-ethyl)-6-[2-[1-(difluoromethyl)pyrazol-4-yl]-3-fluoro-1H-pyrrolo[2,3-b]pyridin-5-yl]pyridine-2-carboxamide]	0.0001 to 10	0.0001 to 10	–

Second part, led by results:

IC50 (TGFβR2) [µM]	IC50 (FLT3 D835Y) [µM]	SMILES	activity against quizartinib resistance-causing mutants [1]
0.0001 to 10	0.0001 to 10	CC(C)(C#N)NC(=O)c1cc(F)cc(-c2cnc3[nH]c(-c4cnn(C(F)F)c4)cc3c2)n1 [P-024, N-(2-cyanopropan-2-yl)-6-(2-(1-(difluoromethyl)-1H-pyrazol-4-yl)-1H-pyrrolo[2,3-b]pyridin-5-yl)-4-fluoropicolinamide]	–
0.0001 to 10	0.0001 to 10	O=C(Nc1nnc[nH]1)c1cccc(-c2cnc3[nH]c(-c4cnn(C(F)F)c4)cc3c2)n1 [P-019, 6-(2-(1-(difluoromethyl)-1H-pyrazol-4-yl)-1H-pyrrolo[2,3-b]pyridin-5-yl)-N-(4H-1,2,4-triazol-3-yl)picolinamide]	–
0.0001 to 10	0.0001 to 10	CN1CC(NC(=O)c2cccc(-c3cnc4[nH]c(-c5cnn(C(F)F)c5)cc4c3)n2)C1 [P-015, 6-(2-(1-(difluoromethyl)-1H-pyrazol-4-yl)-1H-pyrrolo[2,3-b]pyridin-5-yl)-N-(1-methylazetidin-3-yl)picolinamide]	–
0.0001 to 10	0.0001 to 10	O=C(NC1COC1)c1cccc(-c2cnc3[nH]c(-c4cnn(C(F)F)c4)cc3c2)n1 [P-014, 6-(2-(1-(difluoromethyl)-1H-pyrazol-4-yl)-1H-pyrrolo[2,3-b]pyridin-5-yl)-N-(oxetan-3-yl)picolinamide]	–
0.0001 to 10	0.0001 to 10	O=C(Nc1ccn[nH]1)c1cccc(-c2cnc3[nH]c(-c4cnn(C(F)F)c4)cc3c2)n1 [P-018, 6-(2-(1-(difluoromethyl)-1H-pyrazol-4-yl)-1H-pyrrolo[2,3-b]pyridin-5-yl)-N-(1H-pyrazol-5-yl)picolinamide]	–
0.0001 to 10	0.0001 to 10	O=C(Nc1cnc[nH]1)c1cccc(-c2cnc3[nH]c(-c4cnn(C(F)F)c4)cc3c2)n1 [P-017, 6-(2-(1-(difluoromethyl)-1H-pyrazol-4-yl)-1H-pyrrolo[2,3-b]pyridin-5-yl)-N-(1H-imidazol-5-yl)picolinamide]	–
0.0001 to 10	0.0001 to 10	CC(C)(C#N)NC(=O)c1cncc(-c2cnc3[nH]c(-c4cnn(C(F)F)c4)cc3c2)n1 [P-021, N-(2-cyanopropan-2-yl)-6-(2-(1-(difluoromethyl)-1H-pyrazol-4-yl)-1H-pyrrolo[2,3-b]pyridin-5-yl)pyrazine-2-carboxamide]	–
0.0001 to 10	0.0001 to 10	O=C(NCC1(O)CCC1)c1cccc(-c2cnc3[nH]c(-c4cnn(C(F)F)c4)cc3c2)n1 [P-013, 6-(2-(1-(difluoromethyl)-1H-pyrazol-4-yl)-1H-pyrrolo[2,3-b]pyridin-5-yl)-N-((1-hydroxycyclobutyl)methyl)picolinamide]	–
0.0001 to 10	0.0001 to 10	O=C(Nc1ncc[nH]1)c1cccc(-c2cnc3[nH]c(-c4cnn(C(F)F)c4)cc3c2)n1 [P-016, 6-(2-(1-(difluoromethyl)-1H-pyrazol-4-yl)-1H-pyrrolo[2,3-b]pyridin-5-yl)-N-(1H-imidazol-2-yl)picolinamide]	–
